Where two headings read alike, the source gives them in different places. Square brackets hold non-standard residues; d marks the D form. Peptide text beside a SMILES is read from it. * marks the point of attachment. Hexanoyl = CCCCCC(=O)*; Ahx = NCCCCCC(=O)O
Assays:
[1] = test system: dopaminergic (DA) neurons; test: TH+ neuron number and neurite network after MPP+, rotenone or 6-OHDA injury; type: cell-based, rat (Wistar); design: key to Neurite Network (significance vs insult) / TH+ neuron number (significance vs insult): “NS” indicates that the comparison was not statistically significant; “+” indicates that p<0.05
From the text: A range of neurodegenerative disease states converge on neuroinflammatory dysfunction related to mitochondrial impairment and the generation of reactive oxygen species (ROS). Chemical disruption of mitochondrial function by treatment of neuron cultures with 1-methyl-4-phenylpyridium (MPP+) or the pesticide rotenone can lead to activation of inflammatory signaling pathways and death via apoptotic and necrotic mechanisms. Similarly, intracellular oxidation of 6-hydroxydopamine (6-OHDA), which is readily absorbed by dopaminergic neurons in culture, leads to production of ROS within the cell, activation of inflammatory signaling, and cell death. In vitro exposure to these neurotoxins has been successfully used to model the effects of neurodegenerative inflammation and identify therapeutic agents that can protect neurons from these effects.
Midbrain tissue obtained from 15-day old rat (Wistar) embryos was dissected and the ventral mesencephalic region, an area rich in dopaminergic (DA) neurons was removed and dissociated by trypsinization and mechanical passage. Cells were cultured in Neurobasal medium supplemented with B27 (2%), L-glutamine (2 mM), 2% of Penicillin-Streptomycin (PS) solution, 10 ng/mL of Brain-derived neurotrophic factor (BDNF) and 1 ng/mL of Glial-Derived Neurotrophic Factor (GDNF).
Viable cells were seeded at a density of 40,000 cells/well in 96-well plates and maintained at 37° C. in 5% CO2. […] Subsequently, chemical insults were added to the culture in separate plates as follows: 4 uM of MPP+ for 48 hours, 10 nM of rotenone for 24 hours, and 20 uM of 6-OHDA for 24 hours.
Following incubation, cell culture supernatant was replaced by a fixative solution of 4% paraformaldehyde in PBS for 20 minutes and prepared for immunostaining. Fixed cultures were stained with a monoclonal anti-Tyrosine Hydroxylase (TH) antibody (1:10000 in PBS, 2 hrs, RT) followed by incubation with appropriate fluorescent secondary antibody and Hoechst dye. Automated fluorescent imaging, 20 images per well, was performed at 10× magnification. Computation image analysis was used to quantify the total number of TH+ neurons, and the total length of the neurite network. Statistical analysis using a one-way ANOVA followed by Fishers LSD test compared inflammatory insult cultures with and without test compound treatment.

Prp-TDP43^A315T mice = type: in vivo
Protocol: Extranuclear accumulation of TDP-43 protein is a pathological hallmark of a number of neurological diseases. […] Male Prp-TDP43^A315T mice (N=10 mice per group) at 3 weeks of age were administered daily treatments of test compounds. Compound A19 was administered via subcutaneous injection, and Compound 5a and Compound 6a were administered via oral gavage. After 2 months of treatment, plasma samples were collected for cytokine quantification. […] Plasma IL-6 and TNF-α cytokine expression levels were determined using the ELISA method. The submandibular vein was punctured with a lancet and a blood drop was collected directly on a microtube containing EDTA as anticoagulant. Samples were centrifuged for 15 minutes at 1000×g at 4° C. within 20 minutes of collection. 20 μl of plasma supernatant was stored at −20° C. before ELISA analysis.
Plasma was diluted at 1:10 in sterile PBS, and IL-6 and TNF-α quantification was performed in duplicate for each animal using 10 μl of sample per well in 96-well plates using the ELISA method (IL-6: Signa-Aldrich Cat #RAB0308, TNF-α: Sigma-Aldrich Cat #RAB0477). Statistical analysis was carried out by 2-way ANOVA with Dunnett's multiple comparisons post-test with compound-treated samples compared to vehicle-treated samples.

[2] = 6-OHDA injury (20 uM, 24 hrs), dose 0.01 nM
[3] = 6-OHDA injury (20 uM, 24 hrs), dose 0.1 nM
[4] = 6-OHDA injury (20 uM, 24 hrs), dose 1 nM
[5] = 6-OHDA injury (20 uM, 24 hrs), dose 10 nM
[6] = 6-OHDA injury (20 uM, 24 hrs), dose 100 nM
[7] = 6-OHDA injury (20 uM, 24 hrs), dose 1000 nM
[8] = MPP+ injury (4 uM, 48 hrs), dose 0.01 nM
[9] = MPP+ injury (4 uM, 48 hrs), dose 0.1 nM
[10] = MPP+ injury (4 uM, 48 hrs), dose 1 nM
[11] = MPP+ injury (4 uM, 48 hrs), dose 10 nM
[12] = MPP+ injury (4 uM, 48 hrs), dose 100 nM
[13] = MPP+ injury (4 uM, 48 hrs), dose 1000 nM
[14] = Rotenone injury (10 nM, 24 hrs), dose 0.01 nM
[15] = Rotenone injury (10 nM, 24 hrs), dose 0.1 nM
[16] = Rotenone injury (10 nM, 24 hrs), dose 1 nM
[17] = Rotenone injury (10 nM, 24 hrs), dose 10 nM
[18] = Rotenone injury (10 nM, 24 hrs), dose 100 nM
[19] = Rotenone injury (10 nM, 24 hrs), dose 1000 nM
[20] = 2 months of treatment, doses as in the value

CCCCCC(=O)N[C@@H](Cc1ccc(O)cc1)C(=O)N[C@H](C(=O)NCCCCCC(N)=O)[C@@H](C)CC [Compound A19 active metabolite, dihexa] (Hexanoyl-Tyr-Ile-[Ahx]-NH2)
Neurite Network (significance vs insult) [1, 2]: NS
TH+ neuron number (significance vs insult) [1, 2]: NS
Neurite Network (significance vs insult) [1, 3]: NS
TH+ neuron number (significance vs insult) [1, 3]: NS
Neurite Network (significance vs insult) [1, 4]: NS
TH+ neuron number (significance vs insult) [1, 4]: + (“+” indicates that p<0.05)
Neurite Network (significance vs insult) [1, 5]: + (“+” indicates that p<0.05)
TH+ neuron number (significance vs insult) [1, 5]: + (“+” indicates that p<0.05)
Neurite Network (significance vs insult) [1, 6]: + (“+” indicates that p<0.05)
TH+ neuron number (significance vs insult) [1, 6]: + (“+” indicates that p<0.05)
Neurite Network (significance vs insult) [1, 7]: + (“+” indicates that p<0.05)
TH+ neuron number (significance vs insult) [1, 7]: + (“+” indicates that p<0.05)
Neurite Network (significance vs insult) [1, 8]: NS
TH+ neuron number (significance vs insult) [1, 8]: NS
Neurite Network (significance vs insult) [1, 9]: NS
TH+ neuron number (significance vs insult) [1, 9]: NS
Neurite Network (significance vs insult) [1, 10]: NS
TH+ neuron number (significance vs insult) [1, 10]: + (“+” indicates that p<0.05)
Neurite Network (significance vs insult) [1, 11]: NS
TH+ neuron number (significance vs insult) [1, 11]: + (“+” indicates that p<0.05)
Neurite Network (significance vs insult) [1, 12]: + (“+” indicates that p<0.05)
TH+ neuron number (significance vs insult) [1, 12]: + (“+” indicates that p<0.05)
Neurite Network (significance vs insult) [1, 13]: + (“+” indicates that p<0.05)
TH+ neuron number (significance vs insult) [1, 13]: + (“+” indicates that p<0.05)
Neurotoxic impact of inflammatory-relevant chemical insults (result in words) ([1]; MPP+, rotenone, 6-OHDA): reduces the neurotoxic impact of inflammatory-relevant chemical insults
Neurite Network (significance vs insult) [1, 14]: NS
TH+ neuron number (significance vs insult) [1, 14]: NS
Neurite Network (significance vs insult) [1, 15]: NS
TH+ neuron number (significance vs insult) [1, 15]: NS
Neurite Network (significance vs insult) [1, 16]: NS
TH+ neuron number (significance vs insult) [1, 16]: NS
Neurite Network (significance vs insult) [1, 17]: NS
TH+ neuron number (significance vs insult) [1, 17]: + (“+” indicates that p<0.05)
Neurite Network (significance vs insult) [1, 18]: + (“+” indicates that p<0.05)
TH+ neuron number (significance vs insult) [1, 18]: + (“+” indicates that p<0.05)
Neurite Network (significance vs insult) [1, 19]: + (“+” indicates that p<0.05)
TH+ neuron number (significance vs insult) [1, 19]: + (“+” indicates that p<0.05)

CCC(C)CN1CC2N(Cc3ccc(C(F)(F)F)cc3)CCC(=O)N2[C@@H](C)C1=O (stereo partly drawn) [Compound 5a]
Significant decrease in plasma cytokine expression after 2 months of treatment: IL-6 (Prp-TDP43^A315T mice; 2 mg/kg PO daily): ++++ (++++ = p < 0.0001)
Significant decrease in plasma cytokine expression after 2 months of treatment: TNF-α (Prp-TDP43^A315T mice; 2 mg/kg PO daily): ++++ (++++ = p < 0.0001)
Significant decrease in plasma cytokine expression after 2 months of treatment: IL-6 (Prp-TDP43^A315T mice; 10 mg/kg PO daily): ++++ (++++ = p < 0.0001)
Significant decrease in plasma cytokine expression after 2 months of treatment: TNF-α (Prp-TDP43^A315T mice; 10 mg/kg PO daily): ++++ (++++ = p < 0.0001)
Significant decrease in plasma cytokine expression after 2 months of treatment: IL-6 (Prp-TDP43^A315T mice; 20 mg/kg PO daily): ++++ (++++ = p < 0.0001)
Significant decrease in plasma cytokine expression after 2 months of treatment: TNF-α (Prp-TDP43^A315T mice; 20 mg/kg PO daily): ++++ (++++ = p < 0.0001)
Plasma IL-6 expression (result in words) (Prp-TDP43^A315T mice; [20]): significantly reduced both cytokine levels at doses of 2, 10, and 20 mg/kg
Plasma TNF-α expression (result in words) (Prp-TDP43^A315T mice; [20]): significantly reduced both cytokine levels at doses of 2, 10, and 20 mg/kg

Source: US20250275976A1, “Methods of Treating Neuroinflammatory Conditions” (Athira Pharma, Inc., priority 2022, published 2025)
